What was measured:
H1975 [1] = assay: Effects of gefitinib or CL-387,785 on H1975, MTT growth rate; format: cell-based, human; conditions: 0.01 to 10 μM, 72 hours, FIG. 8
Procedure: (§1) After 80% confluent H1975 was stripped and collected, the cells were seeded at 2×10^3 cells/well on 96-well plates and cultured for 24 hours. After that, gefitinib or CL-387,785 was added to each well so that the final concentration might be set to the seven levels of 0.01 to 10 μM, and then culture was continued for 72 hours. After that, 50 μl, of an MTT solution (2 mg/mL, manufactured by Sigma) was added and incubation was performed at 37° C. for 2 hours. The culture media were removed, and dark blue crystals were dissolved by adding 100 μL of DMSO. The absorbance was measured with a microplate reader MTP-120 (Corona Electric Co., Ltd.) at the detection and reference wavelengths of 550 nm and 630 nm, respectively. The growth rate was shown as a relative value based on an untreated control. Each experiment was performed in triplicate and repeated thrice independently.

PC-9 [2] = assay: Effects of SU11274 on PC-9 with HGF-induced gefitinib-resistance; format: cell-based, human; conditions: HGF 20 ng/mL, gefitinib 0.3 μM, antibody 1 μg/mL, NK4 0.3 μM, SU11274 0.3 μM, 72 hours, FIG. 11
Procedure: as §1, with “PC-9” for “After 80% confluent H1975”, “was” for “was stripped and collected, the cells were”, “After that, gefitinib or CL-387,785 was added to each well so that the final concentration might be set to the seven levels of 0.01 to 10 μM, and then culture was continued for 72 hours.” left out, “μL” for “μl,”

H1975 [3] = assay: Effects of SU11274 on H1975 with HGF-induced CL-387,785-resistance; format: cell-based, human; conditions: CL-387,785 0.3 μM, HGF 50 ng/mL, antibody 2 μg/mL, NK4 0.3 μM, 72 hours, FIG. 12
Procedure: H1975 was seeded at 2×10^3 cells/well on 96-well plates and cultured for 24 hours. […] The degree of cell growth was measured by the MTT method and the growth rate was calculated in the same manner as in the above (a).

[4] = test system: tumor formed of PC-9 and MRC-5 cells; assay: Xenograft tumor (PC-9 + MRC-5) transplanted into SCID mice; format: in vivo; conditions: PC-9 + MRC-5 s.c., days 4 to 16, gefitinib 25 mg/kg/day oral, antibody 5 mg/kg/day i.p., NK4 9 mg/kg/day i.p., FIG. 6
Procedure: SCID mice (female, 5 weeks old) were purchased from CLEA Japan.
100 μL of a cell suspension containing PC-9 (5×10^6 cells) and MRC-5 (5×10^6 cells) was subcutaneously inoculated from the back skin of each SCID mouse. Four days later, mice bearing a tumor exceeding 4 mm in diameter were randomly divided into 6 groups (5 mice per group) as shown in Table 1.
In gefitinib-treated groups (groups 4, 5 and 6 in Table 1), gefitinib (25 mg/kg/day) was orally administered once daily in the morning for 13 days from 4 days to 16 days after cell inoculation. In gefitinib-non-treated groups (groups 1, 2 and 3 in Table 1), a water containing 1% Tween80 was orally administered once daily in a similar manner to the above. In anti-HGF neutralizing antibody-treated groups (groups 2 and 5 in Table 1), the anti-HGF neutralizing antibody (5 mg/kg/day) was intraperitoneally administered once daily immediately after gefitinib administration for 13 days from 4 days to 16 days after cell inoculation. In NK4-treated groups (groups 3 and 6 in Table 1), NK4 (9 mg/kg/day) was intraperitoneally administered in divided portions twice a day in the morning immediately after gefitinib administration and in the evening for 13 days from 4 days to 16 days after cell inoculation.
The width and length of tumor were measured every other day, and the tumor area (width×length) was calculated. […]

PC-9/HGF = assay: PC-9 transfected with HGF expression vector, MTT growth rate; format: cell-based, human; conditions: gefitinib 0.3 μM, 72 hours, FIG. 4
Procedure: (§2) An HGF expression vector was prepared according to the description in “Ueki T, Kaneda Y, Tsutsui H, et al. Hepatocyte growth factor gene therapy of liver cirrhosis in rats. Nature Medicine 5, 226-230 (1 Feb. 1999)”. On the day before transfection, PC-9 prepared in a culture medium without any antibiotics was seeded at 2×10^4 cells/400 μL on 24-well plates and then cultured for 24 hours. The HGF expression vector was transfected into the cells by use of Lipofectamine 2000 (1 μL) (PC-9/HGF). As a control, a vector without the HGF gene was similarly transfected into the cells (PC-9/mock). After 24-hour culture, the cells were washed with PBS. Then, 0.3 μM of gefitinib (final concentration), 2 μg/mL of the anti-human HGF neutralizing antibody (final concentration) and/or 2 μg/mL of the control IgG (final concentration) were added, or not added, and then culture was continued for 72 hours. After 72-hour culture, the degree of cell growth was measured by the MTT method and the growth rate was calculated in the same manner as in Example 1.

PC-9/mock = assay: PC-9 transfected with vector without the HGF gene, MTT growth rate; format: cell-based, human; conditions: gefitinib 0.3 μM, 72 hours, FIG. 4
Procedure: as §2

HCC827 [5] = assay: Induction of gefitinib resistance by various growth factors; format: cell-based, human; conditions: growth factor 20 ng/mL, gefitinib 0.3 or 1 μM, 72 hours, FIG. 3(b)
Procedure: (§3) In the same manner as in the above (a), PC-9 or HCC827 was seeded at 2×10^3 cells/well on 96-well plates, and after 24-hour culture, gefitinib was added to the wells so that the final concentration might be 0.3 or 1 μM. HGF, EGF, TGF-α or IGF-I was further added to give a final concentration of 20 ng/mL and then culture was continued for 72 hours. Wells without gefitinib and wells into which a culture medium was added instead of the growth factors were prepared for this experiment. After 72-hour culture, the degree of cell growth was measured by the MTT method and the growth rate was calculated in the same manner as in the above (a).

PC-9 [6] = assay: as above; format: cell-based, human; conditions: growth factor 20 ng/mL, gefitinib 0.3 or 1 μM, 72 hours, FIG. 3(a)
Procedure: as §3

PC-9 [7] = assay: Single culture of PC-9 with or without HGF, MTT growth rate; format: cell-based, human; conditions: PC-9 single culture; HGF 50 ng/mL; gefitinib 0.3 μM; 72 hours; FIG. 5
Procedure: In the case of single culture of PC-9, PC-9 was seeded in each well of 24-well plates at 8×10^3 cells/700 μL and then cultured for 24 hours. After that, 50 ng/mL of HGF (final concentration) was added or not added, 0.3 μM of gefitinib (final concentration) was added or not added, 2 μg/mL of the control IgG (final concentration) or 2 μg/mL of the anti-human HGF neutralizing antibody (final concentration) was added or not added, and then culture was continued for 72 hours. After 72-hour culture, the degree of cell growth was measured by the MTT method and the growth rate was calculated in the same manner as in Example 1.

HCC827 [8] = assay: Induction of gefitinib resistance by HGF, MTT growth rate; format: cell-based, human; conditions: HGF 2 to 50 ng/mL, gefitinib 0.01 to 1 μM, 72-hour culture, FIG. 1(b)
Procedure: (§4) PC-9 or HCC827 was seeded at 2×10^3 cells/well on 96-well plates and cultured for 24 hours. After that, gefitinib and HGF were added to the wells in combinations thereof at different concentrations. Specifically, gefitinib was added to each well so that the final concentration might be set to the five levels of 0.01 to 1 μM. Wells without gefitinib were also prepared for this experiment. An HGF solution was added to the wells so that the final concentration might be set to the five levels of 2 to 50 ng/mL. Wells without HGF were also prepared for this experiment. After 72-hour culture, 50 μL of an MTT solution (2 mg/mL, manufactured by Sigma) was added and incubation was performed at 37° C. for 2 hours. The culture media were removed, and dark blue crystals were dissolved by adding 100 μL of DMSO. The absorbance was measured with a microplate reader MTP-120 (Corona Electric Co., Ltd.) at the detection and reference wavelengths of 550 nm and 630 nm, respectively. The growth rate was shown as a relative value based on an untreated control. Each experiment was performed in triplicate and repeated thrice independently.

PC-9 [9] = assay: as above; format: cell-based, human; conditions: HGF 2 to 50 ng/mL, gefitinib 0.01 to 1 μM, 72-hour culture, FIG. 1(a)
Procedure: as §4

H1975 [10] = assay: Induction of CL-387,785 resistance by HGF; format: cell-based, human; conditions: HGF 50 ng/mL, CL-387,785 0.03 to 3 μM, 72 hours, FIG. 9
Procedure: In the same manner as in the above (a), H1975 was seeded at 2×10^3 cells/well on 96-well plates. After 24-hour culture, CL-387,785 was added to the wells so that the final concentration might be set to the five levels of 0.03 to 3 μM. An HGF solution was further added to give a final concentration of 50 ng/mL, or was not added, and then culture was continued for 72 hours. The degree of cell growth was measured by the MTT method and the growth rate was calculated in the same manner as in the above (a).

## CC#CC(=O)Nc1ccc2ncnc(Nc3cccc(Br)c3)c2c1 [CL-387,785]
H1975 [1]
  sensitivity of H1975 to the drug (growth rate): sensitive

## Cc1[nH]c(/C=C2\C(=O)Nc3ccc(S(=O)(=O)N(C)c4cccc(Cl)c4)cc32)c(C)c1C(=O)N1CCN(C)CC1 [SU11274, reference compound]
PC-9 [2]
  inhibition of HGF-induced hyposensitivity of PC-9 to gefitinib: significantly inhibited
H1975 [3]
  inhibition of HGF-induced hyposensitivity of H1975 to CL-387,785: significantly inhibited

## COc1cc2ncnc(Nc3ccc(F)c(Cl)c3)c2cc1OCCCN1CCOCC1 [gefitinib]
[4]
  tumor volume / tumor growth over time: increase in tumor volume was inhibited, but no significant regression was observed
PC-9/HGF
  sensitivity of cells to gefitinib (growth rate): less sensitive
H1975 [1]
  sensitivity of H1975 to the drug (growth rate): resistant
PC-9/mock
  sensitivity of cells to gefitinib (growth rate): sensitive

## EGF (NSDSECPLSHDGYCLHDGVCMYIEALDKYACNCVVGYIGERCQYRDLKWWELR; Epidermal growth factor; UniProt P01133 971-1023, looked up) [growth factor purchased from Invitrogen]
HCC827 [5]
  induction of gefitinib resistance by growth factor (growth rate): slightly induced gefitinib resistance
PC-9 [6]
  induction of gefitinib resistance by growth factor (growth rate): slightly induced gefitinib resistance

## HGF
PC-9 [7]
  induction of gefitinib resistance (hyposensitivity) of PC-9: induced gefitinib resistance
HCC827 [5]
  induction of gefitinib resistance by growth factor (growth rate): remarkable capability of inducing gefitinib resistance
PC-9 [6]
  induction of gefitinib resistance by growth factor (growth rate): remarkable capability of inducing gefitinib resistance
HCC827 [8]
  induction of gefitinib resistance (growth rate): induced gefitinib resistance of PC-9 and HCC827 in a concentration-dependent manner
PC-9 [9]
  induction of gefitinib resistance (growth rate): induced gefitinib resistance of PC-9 and HCC827 in a concentration-dependent manner
H1975 [10]
  effect of HGF on sensitivity of H1975 to CL-387,785: reduced the sensitivity of H1975 to CL-387,785

## IGF-I
HCC827 [5]
  induction of gefitinib resistance by growth factor (growth rate): slightly induced gefitinib resistance
PC-9 [6]
  induction of gefitinib resistance by growth factor (growth rate): slightly induced gefitinib resistance

## TGF-α
HCC827 [5]
  induction of gefitinib resistance by growth factor (growth rate): slightly induced gefitinib resistance
PC-9 [6]
  induction of gefitinib resistance by growth factor (growth rate): slightly induced gefitinib resistance

Source: US20120064090A1, “THERAPEUTIC AGENT FOR CANCER HAVING REDUCED SENSITIVITY TO MOLECULAR TARGET DRUG AND PHARMACEUTICAL COMPOSITION FOR ENHANCING SENSITIVITY TO MOLECULAR TARGET DRUG” (KRINGLE PHARMA INC., priority 2009, published 2012)
